Test results reported in article PMC3950682 (Nucleic Acids Research, 2013).

Molecular target: Bmt5 (Saccharomyces cerevisiae, UniProt P40493)
Assay: biochemical

Sequence of Bmt5 (P40493 whole entry): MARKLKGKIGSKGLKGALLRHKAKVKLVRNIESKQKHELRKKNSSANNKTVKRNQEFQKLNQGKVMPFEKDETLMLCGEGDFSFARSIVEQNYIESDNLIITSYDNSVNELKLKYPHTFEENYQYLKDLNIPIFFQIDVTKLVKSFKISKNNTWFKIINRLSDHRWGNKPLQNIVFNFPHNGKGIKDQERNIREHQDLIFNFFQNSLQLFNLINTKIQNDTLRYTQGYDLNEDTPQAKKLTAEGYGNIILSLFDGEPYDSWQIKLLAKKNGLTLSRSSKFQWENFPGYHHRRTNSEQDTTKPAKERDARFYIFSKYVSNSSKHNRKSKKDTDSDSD

Kd: 109 ± 10.8 µM
SMILES: C[S+](CC[C@H](N)C(=O)O)C[C@H]1O[C@@H](n2cnc3c(N)ncnc32)[C@H](O)[C@@H]1O (stereo partly shown) [SAM]
